According to patent US11492385B2, “Long-acting co-agonists of the glucagon and GLP-1 receptors” (Merck Sharp & Dohme Corp., priority 2015, dated 2022):
Starred links: 1 amine or outer side, 2 acyl side, 3 side chain; linkers in the order of their positions; H or OH if unused. Non-standard residues stand in square brackets, D forms with d. Residues, ends and D or L forms follow the SMILES beside them. Groups on a side chain read outwards from the residue. *: point of attachment. Phe(4-CH2NH2) = NCc1ccc(C[C@H](N)C(=O)O)cc1; C18 diacid = O=C(O)CCCCCCCCCCCCCCCCC(=O)*; C16 diacid = O=C(O)CCCCCCCCCCCCCCC(=O)*; γGlu = O=C(O)[C@H](CCC(=O)[*:2])N[*:1]; X1 = O=C([C@H]1CCC[C@@H]1N[*:1])[*:2]; Met(O2) = CS(=O)(=O)CC[C@H](N)C(=O)O; αMeF = C[C@](N)(Cc1ccccc1)C(=O)O; αMeD = C[C@](N)(CC(=O)O)C(=O)O; αMeL = CC(C)C[C@](C)(N)C(=O)O; AEEA = NCCOCCOCC(=O)O; Aib = CC(C)(N)C(=O)O

What was measured:
human GCGR = biological target: T1, human GCGR (Homo sapiens, UniProt P47871); test: cAMP activity assay, cells expressing human GCGR; type: cell-based; conditions: for EC50: cAMP production, cells expressing human GCGR, assay buffer with or without 20% human serum (not stated which), read-out: GCGR EC50 human; for hGCGR/hGLP1R (hTone): ratio of human GCGR EC50 to human GLP1R EC50
T1 construct: expressed in transfected cells; kept under Blasticidin and Hygromycin selection
T1 sequence (P47871 26-477): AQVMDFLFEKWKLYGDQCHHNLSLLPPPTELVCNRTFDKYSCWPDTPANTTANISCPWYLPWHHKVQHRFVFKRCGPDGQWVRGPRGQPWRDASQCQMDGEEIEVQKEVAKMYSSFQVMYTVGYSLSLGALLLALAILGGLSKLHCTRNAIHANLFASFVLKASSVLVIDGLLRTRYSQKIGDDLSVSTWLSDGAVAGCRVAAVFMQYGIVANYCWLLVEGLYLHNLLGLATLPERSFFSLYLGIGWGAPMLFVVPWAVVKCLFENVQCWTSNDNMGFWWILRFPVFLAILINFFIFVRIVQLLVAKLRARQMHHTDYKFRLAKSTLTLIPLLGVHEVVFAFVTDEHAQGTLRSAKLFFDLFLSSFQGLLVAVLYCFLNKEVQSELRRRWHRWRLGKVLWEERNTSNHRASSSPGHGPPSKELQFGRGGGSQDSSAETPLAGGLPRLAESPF
Procedure: (§1) Activity of the peptides at the Glucagon receptor (GCGR) and GLP-1 receptor (GLP1R) was measured in a cAMP activity assay. Peptides were dissolved in 100% DMSO and serially diluted to generate 10 point titrations. The peptide solutions were then transferred into 384-well assay plates (150 nL/well). […] Production of cAMP was determined using […] kits (DiscoverX) following manufacturer protocol. The plates were incubated for overnight at room temperature in the dark. Luminescence was measured using an EnVision Multilabel plate reader (Perkin Elmer). Native GLP-1 and Glucagon (Bachem) are used as control peptides. EC50 values were calculated using uses a 4 parameter logistic fit based on the Levenberg-Marquardt algorithm.

human GLP1R = biological target: T2, human GLP1R (Homo sapiens, UniProt P43220); test: cAMP activity assay, cells expressing human GLP1R; type: cell-based; conditions: cAMP production, assay buffer with or without 20% human serum (not stated which)
T2 construct: expressed in transfected cells; kept under Blasticidin and Hygromycin selection
T2 sequence (P43220 24-463): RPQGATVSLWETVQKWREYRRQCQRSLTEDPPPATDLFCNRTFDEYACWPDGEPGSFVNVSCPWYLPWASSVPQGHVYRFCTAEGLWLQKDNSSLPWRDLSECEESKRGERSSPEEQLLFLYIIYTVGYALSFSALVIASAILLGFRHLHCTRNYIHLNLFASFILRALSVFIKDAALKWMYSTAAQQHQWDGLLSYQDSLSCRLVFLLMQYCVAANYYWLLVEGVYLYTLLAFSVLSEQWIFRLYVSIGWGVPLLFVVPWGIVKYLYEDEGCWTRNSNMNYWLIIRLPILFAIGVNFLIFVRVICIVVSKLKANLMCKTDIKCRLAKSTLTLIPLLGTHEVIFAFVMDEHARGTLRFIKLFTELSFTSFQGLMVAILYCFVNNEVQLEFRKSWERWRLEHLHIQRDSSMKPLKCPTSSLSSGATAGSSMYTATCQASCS
Procedure: as §1

SMILES | EC50 (human GCGR) | hGCGR/hGLP1R (hTone) (human GCGR) | EC50 (human GLP1R)
CC(C)C[C@H](NC(=O)[C@H](Cc1c[nH]c2ccccc12)NC(=O)[C@H](CCC(N)=O)NC(=O)[C@@H](NC(=O)[C@H](Cc1ccccc1)NC(=O)[C@H](CC(=O)O)NC(=O)[C@H](CCCCNC(=O)COCCOCCNC(=O)COCCOCCNC(=O)CC[C@H](NC(=O)CCCCCCCCCCCCCCC(=O)O)C(=O)O)NC(=O)[C@H](C)NC(=O)[C@H](C)NC(=O)[C@H](CCCNC(=N)N)NC(=O)[C@H](C)NC(=O)[C@H](CC(=O)O)NC(=O)[C@](C)(CC(C)C)NC(=O)[C@H](Cc1ccc(O)cc1)NC(=O)[C@H](CCCCN)NC(=O)[C@H](CO)NC(=O)[C@H](Cc1ccc(O)cc1)NC(=O)[C@H](CC(=O)O)NC(=O)[C@H](CO)NC(=O)[C@@H](NC(=O)[C@H](Cc1ccccc1)NC(=O)[C@@H](NC(=O)CNC(=O)[C@H](CCC(N)=O)NC(=O)C(C)(C)NC(=O)[C@@H](N)Cc1c[nH]cn1)[C@@H](C)O)[C@@H](C)O)C(C)C)C(=O)N[C@@H](CCS(C)(=O)=O)C(=O)N[C@@H](CC(=O)O)C(=O)N[C@H](C(N)=O)[C@@H](C)O [compound 38] (H-H[Aib]QGTFTSDYSKY[αMeL]DARAAK([AEEA-AEEA-γGlu-C16 diacid])DFVQWL[Met(O2)]DT-NH2) | 0.46 nM | 4.54 | 0.1 nM
CC(C)C[C@H](NC(=O)[C@H](Cc1c[nH]c2ccccc12)NC(=O)[C@H](CCC(N)=O)NC(=O)[C@@H](NC(=O)[C@H](Cc1ccccc1)NC(=O)[C@H](CC(=O)O)NC(=O)[C@H](CCC(N)=O)NC(=O)[C@H](C)NC(=O)[C@H](C)NC(=O)[C@H](CCCNC(=N)N)NC(=O)C(C)(C)NC(=O)[C@H](CC(=O)O)NC(=O)[C@H](CC(C)C)NC(=O)[C@H](Cc1ccc(O)cc1)NC(=O)[C@H](CCCCNC(=O)COCCOCCNC(=O)COCCOCCNC(=O)CC[C@H](NC(=O)CCCCCCCCCCCCCCCCC(=O)O)C(=O)O)NC(=O)[C@H](CO)NC(=O)[C@H](Cc1ccc(O)cc1)NC(=O)[C@H](CC(=O)O)NC(=O)[C@H](CO)NC(=O)[C@@H](NC(=O)[C@H](Cc1ccccc1)NC(=O)[C@@H](NC(=O)CNC(=O)[C@H](CCC(N)=O)NC(=O)C(C)(C)NC(=O)[C@@H](N)Cc1c[nH]cn1)[C@@H](C)O)[C@@H](C)O)C(C)C)C(=O)N[C@@H](CCS(C)(=O)=O)C(=O)N[C@@H](CC(=O)O)C(=O)N[C@H](C(N)=O)[C@@H](C)O [compound 5] (H-H[Aib]QGTFTSDYSK([AEEA-AEEA-γGlu-C18 diacid])YLD[Aib]RAAQDFVQWL[Met(O2)]DT-NH2) | 0.97 nM | 8.80 | 0.11 nM
CC(C)C[C@H](NC(=O)[C@H](Cc1ccc(O)cc1)NC(=O)[C@H](CCCCN)NC(=O)[C@H](CO)NC(=O)[C@H](Cc1ccc(O)cc1)NC(=O)[C@H](CC(=O)O)NC(=O)[C@H](CO)NC(=O)[C@@H](NC(=O)[C@H](Cc1ccccc1)NC(=O)[C@@H](NC(=O)CNC(=O)[C@H](CCC(N)=O)NC(=O)[C@@H](CO)NC(=O)[C@@H](N)Cc1c[nH]cn1)[C@@H](C)O)[C@@H](C)O)C(=O)N[C@@H](CC(=O)O)C(=O)N[C@@H](C)C(=O)N[C@@H](CCCNC(=N)N)C(=O)N[C@@H](C)C(=O)N[C@@H](C)C(=O)N[C@@H](Cc1ccc(CNC(=O)COCCOCCNC(=O)COCCOCCNC(=O)CC[C@H](NC(=O)CCCCCCCCCCCCCCC(=O)O)C(=O)O)cc1)C(=O)N[C@@H](CC(=O)O)C(=O)N[C@@H](Cc1ccccc1)C(=O)N[C@H](C(=O)N[C@@H](CCC(N)=O)C(=O)N[C@@H](Cc1c[nH]c2ccccc12)C(=O)N[C@@H](CC(C)C)C(=O)N[C@@H](CC(C)C)C(=O)N[C@@H](CC(=O)O)C(=O)N[C@H](C(N)=O)[C@@H](C)O)C(C)C [compound 22] (H-H[dS]QGTFTSDYSKYLDARAA[Phe(4-CH2NH2)]([AEEA-AEEA-γGlu-C16 diacid])DFVQWLLDT-NH2) | 0.02 nM | 0.08 | 0.29 nM
CC(C)C[C@H](NC(=O)[C@H](Cc1ccc(O)cc1)NC(=O)[C@H]1CCC[C@@H]1NC(=O)[C@H](CO)NC(=O)[C@H](Cc1ccc(O)cc1)NC(=O)[C@H](CC(=O)O)NC(=O)[C@H](CO)NC(=O)[C@@H](NC(=O)[C@H](Cc1ccccc1)NC(=O)[C@@H](NC(=O)CNC(=O)[C@H](CCC(N)=O)NC(=O)C(C)(C)NC(=O)[C@@H](N)Cc1c[nH]cn1)[C@@H](C)O)[C@@H](C)O)C(=O)N[C@@H](CC(=O)O)C(=O)NC(C)(C)C(=O)N[C@@H](CCCNC(=N)N)C(=O)N[C@@H](C)C(=O)N[C@@H](C)C(=O)N[C@@H](CCCCNC(=O)COCCOCCNC(=O)COCCOCCNC(=O)CC[C@H](NC(=O)CCCCCCCCCCCCCCCCC(=O)O)C(=O)O)C(=O)N[C@@H](CC(=O)O)C(=O)N[C@@H](Cc1ccccc1)C(=O)N[C@H](C(=O)N[C@H]1CCC[C@@H]1C(=O)N[C@@H](Cc1c[nH]c2ccccc12)C(=O)N[C@@H](CC(C)C)C(=O)N[C@@H](CCS(C)(=O)=O)C(=O)N[C@@H](CC(=O)O)C(=O)N[C@H](C(N)=O)[C@@H](C)O)C(C)C [compound 34] (H-H[Aib]QGTFTSDYS[X1]YLD[Aib]RAAK([AEEA-AEEA-γGlu-C18 diacid])DFV[X1]WL[Met(O2)]DT-NH2; N-terminus assumed) | 0.64 nM | 0.53 | 1.2 nM
CC(C)C[C@H](NC(=O)[C@H](Cc1ccc(O)cc1)NC(=O)[C@H](CCCCN)NC(=O)[C@H](CO)NC(=O)[C@H](Cc1ccc(O)cc1)NC(=O)[C@H](CC(=O)O)NC(=O)[C@H](CO)NC(=O)[C@@H](NC(=O)[C@H](Cc1ccccc1)NC(=O)[C@@H](NC(=O)CNC(=O)[C@H](CCC(N)=O)NC(=O)C(C)(C)NC(=O)[C@@H](N)Cc1c[nH]cn1)[C@@H](C)O)[C@@H](C)O)C(=O)N[C@@H](CC(=O)O)C(=O)N[C@@H](C)C(=O)N[C@@H](CCCNC(=N)N)C(=O)N[C@@H](C)C(=O)N[C@@H](C)C(=O)N[C@@H](CCCCNC(=O)COCCOCCNC(=O)COCCOCCNC(=O)CC[C@H](NC(=O)CCCCCCCCCCCCCCCCC(=O)O)C(=O)O)C(=O)N[C@@H](CC(=O)O)C(=O)N[C@@H](Cc1ccccc1)C(=O)N[C@H](C(=O)N[C@@H](CCC(N)=O)C(=O)N[C@@H](Cc1c[nH]c2ccccc12)C(=O)N[C@@H](CC(C)C)C(=O)N[C@@H](CCS(C)(=O)=O)C(=O)N[C@@](C)(CC(=O)O)C(=O)N[C@H](C(N)=O)[C@@H](C)O)C(C)C [compound 33] (H-H[Aib]QGTFTSDYSKYLDARAAK([AEEA-AEEA-γGlu-C18 diacid])DFVQWL[Met(O2)][αMeD]T-NH2) | 0.3 nM | 4.00 | 0.07 nM
CC(C)C[C@H](NC(=O)[C@H](Cc1ccc(O)cc1)NC(=O)[C@H](CCCCN)NC(=O)[C@H](CO)NC(=O)[C@H](Cc1ccc(O)cc1)NC(=O)[C@H](CC(=O)O)NC(=O)[C@H](CO)NC(=O)[C@@H](NC(=O)[C@H](Cc1ccccc1)NC(=O)[C@@H](NC(=O)CNC(=O)[C@H](CCC(N)=O)NC(=O)C(C)(C)NC(=O)[C@@H](N)Cc1c[nH]cn1)[C@@H](C)O)[C@@H](C)O)C(=O)N[C@@H](CC(=O)O)C(=O)N[C@@H](C)C(=O)N[C@@H](CCCNC(=N)N)C(=O)N[C@@H](C)C(=O)N[C@@H](C)C(=O)N[C@@H](CCCCNC(=O)COCCOCCNC(=O)COCCOCCNC(=O)CC[C@H](NC(=O)CCCCCCCCCCCCCCC(=O)O)C(=O)O)C(=O)N[C@@H](CC(=O)O)C(=O)N[C@@](C)(Cc1ccccc1)C(=O)N[C@H](C(=O)N[C@@H](CCC(N)=O)C(=O)N[C@@H](Cc1c[nH]c2ccccc12)C(=O)N[C@@H](CC(C)C)C(=O)N[C@@H](CCS(C)(=O)=O)C(=O)N[C@@H](CC(=O)O)C(=O)N[C@H](C(N)=O)[C@@H](C)O)C(C)C [compound 39] (H-H[Aib]QGTFTSDYSKYLDARAAK([AEEA-AEEA-γGlu-C16 diacid])D[αMeF]VQWL[Met(O2)]DT-NH2) | 0.33 nM | 2.93 | 0.11 nM
CC(C)C[C@H](NC(=O)[C@H](Cc1ccc(O)cc1)NC(=O)[C@H](CCCCN)NC(=O)[C@H](CO)NC(=O)[C@H](Cc1ccc(O)cc1)NC(=O)[C@H](CC(=O)O)NC(=O)[C@H](CO)NC(=O)[C@@H](NC(=O)[C@H](Cc1ccccc1)NC(=O)[C@@H](NC(=O)CNC(=O)[C@H](CCC(N)=O)NC(=O)C(C)(C)NC(=O)[C@@H](N)Cc1c[nH]cn1)[C@@H](C)O)[C@@H](C)O)C(=O)N[C@@H](CC(=O)O)C(=O)N[C@@H](C)C(=O)N[C@@H](CCCCN)C(=O)N[C@@H](C)C(=O)N[C@@H](C)C(=O)N[C@@H](CCCCNC(=O)COCCOCCNC(=O)COCCOCCNC(=O)CC[C@H](NC(=O)CCCCCCCCCCCCCCCCC(=O)O)C(=O)O)C(=O)N[C@@H](CC(=O)O)C(=O)N[C@@H](Cc1ccccc1)C(=O)N[C@H](C(=O)N[C@@H](CCC(N)=O)C(=O)N[C@@H](Cc1c[nH]c2ccccc12)C(=O)N[C@@H](CC(C)C)C(=O)N[C@@H](CCS(C)(=O)=O)C(=O)N[C@@H](CC(=O)O)C(=O)N[C@H](C(N)=O)[C@@H](C)O)C(C)C [compound 70] (H-H[Aib]QGTFTSDYSKYLDAKAAK([AEEA-AEEA-γGlu-C18 diacid])DFVQWL[Met(O2)]DT-NH2; N-terminus assumed) | 1.1 nM | 2.3 | 0.5 nM
